Test results: US20200360520A1, “USE OF RIFAMYCIN-QUINOLIZIDONE COUPLING MOLECULE” (priority 2019, published 2020)
In brackets after ≈: the same amount, converted by molar mass. Read-outs that look alike come from different tables or passages of the source.

How the values were obtained:
Format in all cases: cell-based
[1] = tested on: Mycobacterium massiliense; assay: MIC by micro broth dilution method (resazurin microtiter assay); conditions: Mycobacteroides abscessus, MH Culture Medium, read-out: Minimum Inhibitory Concentration (MIC)
[2] = tested on: Mycobacterium kansasii; assay: MBC test (plating on agar, CFU count); conditions: Mycobacterium kansasii, Mycobacterium kansasii, read-out: Minimum Bactericidal Concentration (MBC)
[3] = tested on: Mycobacterium fortuitum; assay: MIC by micro broth dilution method (resazurin microtiter assay); conditions: Mycolicibacterium fortuitum, MH Culture Medium, read-out: Minimum Inhibitory Concentration (MIC)
[4] = tested on: Mycobacterium avium; assay: MBC test (plating on agar, CFU count); conditions: Mycobacterium avium, read-out: Minimum Bactericidal Concentration (MBC)
[5] = tested on: Mycodacterium chelonei; assay: MIC by micro broth dilution method (resazurin microtiter assay); conditions: MH Culture Medium; Chelonei (standard strain); read-out: Minimum Inhibitory Concentration (MIC)
[6] = tested on: Mycobacterium abscessus; assay: MBC test (plating on agar, CFU count); conditions: for Minimum Bactericidal Concentration (MBC): MH Culture Medium; for MBC: Mycobacteroides abscessus, 7H9 Culture Medium, read-out: Minimum Bactericidal Concentration (MBC)
[7] = tested on: Mycobacterium kansasii; assay: MIC by micro broth dilution method (resazurin microtiter assay); conditions: Mycobacterium kansasii, Mycobacterium kansasii, read-out: Minimum Inhibitory Concentration (MIC)
[8] = tested on: Mycobacterium avium; assay: as above; conditions: read-out: Minimum Inhibitory Concentration (MIC)
[9] = tested on: Mycobacterium intracellulare; assay: as above; conditions: Mycobacterium intracellulare, MH Culture Medium, read-out: Minimum Inhibitory Concentration (MIC)
[10] = tested on: Mycobacterium abscessus; assay: as above; conditions: Mycobacteroides abscessus, read-out: Minimum Inhibitory Concentration (MIC)
[11] = clinically isolated strain Massiliense (D10)
[12] = clinically isolated strain Massiliense (D14)
[13] = clinically isolated strain Massiliense (D18)
[14] = clinically isolated strain Fortuitum (S103)
[15] = clinically isolated strain Fortuitum (S111)
[16] = 7H9 Culture Medium, Mycobacterium avium Smooth
[17] = MH Culture Medium, Mycobacterium avium Smooth
[18] = MH Culture Medium, Kansasii (standard strain)
[19] = MH Culture Medium, clinically isolated strain Kansasii (S9)
[20] = MH Culture Medium, clinically isolated strain Kansasii (S199)
[21] = MH Culture Medium, clinically isolated strain Kansasii (S520)
[22] = MH Culture Medium, clinically isolated strain Kansasii (S609)
[23] = 7H9 Broth, Mycobacterium avium Smooth
[24] = MH Broth, Mycobacterium avium Smooth
[25] = MH Culture Medium, Avium (standard strain)
[26] = MH Culture Medium, clinically isolated strain Avium (S31)
[27] = MH Culture Medium, clinically isolated strain Avium (S123)
[28] = MH Culture Medium, clinically isolated strain Avium (S559)
[29] = MH Culture Medium, clinically isolated strain Avium (S568)
[30] = MH Culture Medium, clinically isolated strain Avium (S577)
[31] = MH Culture Medium, clinically isolated strain Avium (S597)
[32] = MH Culture Medium, clinically isolated strain Avium (S602)
[33] = Intracellulare (standard strain)
[34] = clinically isolated strain Intracellulare (S90)
[35] = clinically isolated strain Intracellulare (S261)
[36] = clinically isolated strain Intracellulare (S269)
[37] = clinically isolated strain Intracellulare (S290)
[38] = clinically isolated strain Intracellulare (S291)
[39] = clinically isolated strain Intracellulare (S298)
[40] = clinically isolated strain Intracellulare (S541)
[41] = clinically isolated strain Intracellulare (S623)
[42] = clinically isolated strain Intracellulare (ZPS)
[43] = clinically isolated strain intracellulare (S442)

**Q.** With CO[C@H]1/C=C/O[C@@]2(C)Oc3c(C)c(O)c4c(O)c(c(/C=N/N5CCN(C)CC5)c(O)c4c3C2=O)NC(=O)/C(C)=C\C=C\[C@H](C)[C@H](O)[C@@H](C)[C@@H](O)[C@@H](C)[C@H](OC(C)=O)[C@@H]1C [Rifampicin, rifampicin] as the molecule, how does the MIC [1, 11] read?
**A.** > 64 µg/mL

**Q.** And the MIC [1, 12]?
**A.** > 64 µg/mL

**Q.** What about the MIC [1, 13] of the same molecule?
**A.** > 64 µg/mL

**Q.** What about the MBC ([2]; 7H9 Culture Medium) of the same molecule?
**A.** 4 µg/mL (≈ 4.86 µM)

**Q.** What about the MBC ([2]; MH Culture Medium) of the same molecule?
**A.** 4 µg/mL (≈ 4.86 µM)

**Q.** What about the MIC ([3]; Fortuitum (standard strain)) of the same molecule?
**A.** > 64 µg/mL

**Q.** What about the MIC [3, 14] of the same molecule?
**A.** > 64 µg/mL

**Q.** What about the MIC [3, 15] of the same molecule?
**A.** 64 µg/mL (≈ 77.8 µM)

**Q.** And the MBC ([4]; 7H9 Culture Medium, Mycobacterium avium Rough)?
**A.** > 64 µg/mL

**Q.** What about the MBC [4, 16] of the same molecule?
**A.** 4 µg/mL (≈ 4.86 µM)

**Q.** And the MBC [4, 17]?
**A.** 4 µg/mL (≈ 4.86 µM)

**Q.** And the MIC [5]?
**A.** > 64 µg/mL

**Q.** What about the “Minimum Bactericidal Concentration (MBC)” value [6] of the same molecule?
**A.** >64 µg/mL

**Q.** And the MBC [6]?
**A.** > 64 µg/mL

**Q.** And the MIC ([7]; 7H9 Broth)?
**A.** 16 µg/mL (≈ 19.4 µM)

**Q.** And the MIC ([7]; MH Broth)?
**A.** 16 µg/mL (≈ 19.4 µM)

**Q.** And the MIC [7, 18]?
**A.** 0.125 µg/mL (≈ 0.152 µM)

**Q.** What about the MIC [7, 19] of the same molecule?
**A.** 0.125 µg/mL (≈ 0.152 µM)

**Q.** And the MIC [7, 20]?
**A.** 0.0625 µg/mL (≈ 0.0759 µM)

**Q.** And the MIC [7, 21]?
**A.** 0.0625 µg/mL (≈ 0.0759 µM)

**Q.** What about the MIC [7, 22] of the same molecule?
**A.** 0.0625 µg/mL (≈ 0.0759 µM)

**Q.** What about the MIC ([8]; 7H9 Broth, Mycobacterium avium Rough) of the same molecule?
**A.** 8 µg/mL (≈ 9.72 µM)

**Q.** What about the MIC [8, 23] of the same molecule?
**A.** 0.5 µg/mL (≈ 0.608 µM)

**Q.** What about the MIC ([8]; MH Broth, Mycobacterium avium Rough) of the same molecule?
**A.** 8 µg/mL (≈ 9.72 µM)

**Q.** What about the MIC [8, 24] of the same molecule?
**A.** 1 µg/mL (≈ 1.22 µM)

**Q.** What about the MIC [8, 25] of the same molecule?
**A.** 0.25 µg/mL (≈ 0.304 µM)

**Q.** And the MIC [8, 26]?
**A.** 0.0625 µg/mL (≈ 0.0759 µM)

**Q.** What about the MIC [8, 27] of the same molecule?
**A.** 8 µg/mL (≈ 9.72 µM)

**Q.** What about the MIC [8, 28] of the same molecule?
**A.** 0.125 µg/mL (≈ 0.152 µM)

**Q.** What about the MIC [8, 29] of the same molecule?
**A.** 4 µg/mL (≈ 4.86 µM)

**Q.** What about the MIC [8, 30] of the same molecule?
**A.** 0.125 µg/mL (≈ 0.152 µM)

**Q.** What about the MIC [8, 31] of the same molecule?
**A.** 8 µg/mL (≈ 9.72 µM)

**Q.** And the MIC [8, 32]?
**A.** 2 µg/mL (≈ 2.43 µM)

**Q.** And the MIC [9, 33]?
**A.** 0.25 µg/mL (≈ 0.304 µM)

**Q.** And the MIC [9, 34]?
**A.** 8 µg/mL (≈ 9.72 µM)

**Q.** And the MIC [9, 35]?
**A.** 16 µg/mL (≈ 19.4 µM)

**Q.** And the MIC [9, 36]?
**A.** 4 µg/mL (≈ 4.86 µM)

**Q.** What about the MIC [9, 37] of the same molecule?
**A.** 4 µg/mL (≈ 4.86 µM)

**Q.** What about the MIC [9, 38] of the same molecule?
**A.** 4 µg/mL (≈ 4.86 µM)

**Q.** And the MIC [9, 39]?
**A.** 4 µg/mL (≈ 4.86 µM)

**Q.** What about the MIC [9, 40] of the same molecule?
**A.** 16 µg/mL (≈ 19.4 µM)

**Q.** What about the MIC [9, 41] of the same molecule?
**A.** 8 µg/mL (≈ 9.72 µM)

**Q.** What about the MIC [9, 42] of the same molecule?
**A.** 2 µg/mL (≈ 2.43 µM)

**Q.** What about the MIC [9, 43] of the same molecule?
**A.** 2 µg/mL (≈ 2.43 µM)

**Q.** What about the MIC ([10]; 7H9 Broth) of the same molecule?
**A.** > 64 µg/mL

**Q.** What about the MIC ([10]; MH Broth) of the same molecule?
**A.** > 64 µg/mL

**Q.** What does the source list for Cc1ncc([N+](=O)[O-])n1CCO [Metronidazole, metronidazole]?
**A.** MIC [1, 11]: 16 µg/mL (≈ 93.5 µM); MIC [1, 12]: 16 µg/mL (≈ 93.5 µM); MIC [1, 13]: 8 µg/mL (≈ 46.7 µM); MBC ([2]; 7H9 Culture Medium): > 64 µg/mL; MBC ([2]; MH Culture Medium): > 64 µg/mL; MIC ([3]; Fortuitum (standard strain)): 16 µg/mL (≈ 93.5 µM); MIC [3, 14]: 8 µg/mL (≈ 46.7 µM); MIC [3, 15]: 16 µg/mL (≈ 93.5 µM); MBC [4, 16]: > 64 µg/mL; MBC [4, 17]: > 64 µg/mL; MIC [5]: 16 µg/mL (≈ 93.5 µM); Minimum Bactericidal Concentration (MBC) [6]: >64 µg/mL; MBC [6]: > 64 µg/mL; MIC ([7]; 7H9 Broth): > 64 µg/mL; MIC ([7]; MH Broth): > 64 µg/mL; MIC [7, 18]: 8 µg/mL (≈ 46.7 µM); MIC [7, 19]: 8 µg/mL (≈ 46.7 µM); MIC [7, 20]: 8 µg/mL (≈ 46.7 µM); MIC [7, 21]: 8 µg/mL (≈ 46.7 µM); MIC [7, 22]: 8 µg/mL (≈ 46.7 µM); MIC [8, 23]: > 64 µg/mL; MIC [8, 24]: > 64 µg/mL; MIC [8, 25]: 8 µg/mL (≈ 46.7 µM); MIC [8, 26]: 16 µg/mL (≈ 93.5 µM); MIC [8, 27]: 8 µg/mL (≈ 46.7 µM); MIC [8, 28]: 8 µg/mL (≈ 46.7 µM); MIC [8, 29]: 8 µg/mL (≈ 46.7 µM); MIC [8, 30]: 8 µg/mL (≈ 46.7 µM); MIC [8, 31]: 8 µg/mL (≈ 46.7 µM); MIC [8, 32]: 32 µg/mL (≈ 187 µM); MIC [9, 33]: 8 µg/mL (≈ 46.7 µM); MIC [9, 34]: 16 µg/mL (≈ 93.5 µM); MIC [9, 35]: 16 µg/mL (≈ 93.5 µM); MIC [9, 36]: 16 µg/mL (≈ 93.5 µM); MIC [9, 37]: 8 µg/mL (≈ 46.7 µM); MIC [9, 38]: 8 µg/mL (≈ 46.7 µM); MIC [9, 39]: 16 µg/mL (≈ 93.5 µM); MIC [9, 40]: 16 µg/mL (≈ 93.5 µM); MIC [9, 41]: 8 µg/mL (≈ 46.7 µM); MIC [9, 42]: 8 µg/mL (≈ 46.7 µM); MIC [9, 43]: 8 µg/mL (≈ 46.7 µM); MIC ([10]; 7H9 Broth): > 64 µg/mL; MIC ([10]; MH Broth): > 64 µg/mL
